In article PMC5218480 (PLoS ONE, 2017):

System: MV-4-11 cells
Assay: Gene expression microarray analysis (Affymetrix PrimeView) and GSEA
Type: cell-based, human
Design: RFU PODN (11730768_x_at) / Fold change /veh PODN (11730768_x_at) / RFU LINC00158 (11744669_a_at) / Fold change /veh LINC00158 (11744669_a_at) / RFU DUSP10 (11751237_a_at) / Fold change /veh DUSP10 (11751237_a_at) / RFU ID3 (11757404_x_at) / Fold change /veh ID3 (11757404_x_at) / RFU PLEKHG5 (11737974_s_at) / Fold change /veh PLEKHG5 (11737974_s_at) / RFU LRRC4B (11730491_at) / Fold change /veh LRRC4B (11730491_at) / RFU GIMAP4 (11747438_a_at) / Fold change /veh GIMAP4 (11747438_a_at) / RFU KRT8 (11758183_x_at) / Fold change /veh KRT8 (11758183_x_at) / RFU CNN1 (11734310_a_at) / Fold change /veh CNN1 (11734310_a_at) / RFU VPS37D (11726825_at) / Fold change /veh VPS37D (11726825_at) / RFU C10orf10 (11716522_x_at) / Fold change /veh C10orf10 (11716522_x_at) / RFU KIR2DL2 /// KIR2DL4 /// KIR2DL5A /// KIR2DL5B /// KIR2DS1 /// KIR2DS2 /// KIR2DS3 /// KIR2DS4 /// KIR3DL3 /// KIR3DL3 /// KIR3DS1 (11738374_at) / Fold change /veh KIR2DL2 /// KIR2DL4 /// KIR2DL5A /// KIR2DL5B /// KIR2DS1 /// KIR2DS2 /// KIR2DS3 /// KIR2DS4 /// KIR3DL3 /// KIR3DL3 /// KIR3DS1 (11738374_at) / RFU C1QL1 (11718748_at) / Fold change /veh C1QL1 (11718748_at) / RFU TMPRSS4 (11747572_a_at) / Fold change /veh TMPRSS4 (11747572_a_at) / RFU HAMP (11756126_x_at) / Fold change /veh HAMP (11756126_x_at) / RFU RNFT2 (11725882_a_at) / Fold change /veh RNFT2 (11725882_a_at) / RFU NR4A2 (11747474_a_at) / Fold change /veh NR4A2 (11747474_a_at) / RFU ABCC12 (11746883_a_at) / Fold change /veh ABCC12 (11746883_a_at) / RFU TMEM136 (11760407_x_at) / Fold change /veh TMEM136 (11760407_x_at) / RFU CLDN22 /// WWC2 (11732394_at) / Fold change /veh CLDN22 /// WWC2 (11732394_at) / RFU HLA-DPB1 (11760878_x_at) / Fold change /veh HLA-DPB1 (11760878_x_at) / RFU SPINT1 (11716480_a_at) / Fold change /veh SPINT1 (11716480_a_at) / RFU GAP43 (11754022_s_at) / Fold change /veh GAP43 (11754022_s_at) / RFU A4GNT (11735810_at) / Fold change /veh A4GNT (11735810_at) / RFU PRB3 (11715151_x_at) / Fold change /veh PRB3 (11715151_x_at) / RFU TUBB4B (11761932_at) / Fold change /veh TUBB4B (11761932_at) / RFU CAPN14 (11732068_a_at) / Fold change /veh CAPN14 (11732068_a_at) / RFU TMCC2 (11721928_a_at) / Fold change /veh TMCC2 (11721928_a_at) / RFU IRGQ (11745062_a_at) / Fold change /veh IRGQ (11745062_a_at) / RFU FAM174B (11720279_a_at) / Fold change /veh FAM174B (11720279_a_at) / RFU TMPRSS4 (11748680_a_at) / Fold change /veh TMPRSS4 (11748680_a_at) / RFU FAM212B (11763350_a_at) / Fold change /veh FAM212B (11763350_a_at) / RFU PLEKHG5 (11743358_a_at) / Fold change /veh PLEKHG5 (11743358_a_at) / RFU ZSCAN30 (11745921_a_at) / Fold change /veh ZSCAN30 (11745921_a_at) / RFU CMKLR1 (11741424_a_at) / Fold change /veh CMKLR1 (11741424_a_at) / RFU LOC101060620 /// MAPK8IP1 (11723275_at) / Fold change /veh LOC101060620 /// MAPK8IP1 (11723275_at) / RFU SPTSSB (11747773_x_at) / Fold change /veh SPTSSB (11747773_x_at) / RFU PRSS12 (11739890_at) / Fold change /veh PRSS12 (11739890_at) / RFU BIN1 (11741810_x_at) / Fold change /veh BIN1 (11741810_x_at) / RFU WNT11 (11732464_a_at) / Fold change /veh WNT11 (11732464_a_at) / RFU C10orf10 (11716521_a_at) / Fold change /veh C10orf10 (11716521_a_at) / RFU C5orf56 (11738089_at) / Fold change /veh C5orf56 (11738089_at) / RFU CYB561 (11721691_x_at) / Fold change /veh CYB561 (11721691_x_at) / RFU ANKRD19P (11752326_a_at) / Fold change /veh ANKRD19P (11752326_a_at) / RFU OR2T12 /// OR2T33 /// OR2T8 (11738714_s_at) / Fold change /veh OR2T12 /// OR2T33 /// OR2T8 (11738714_s_at) / RFU VCAN (11748164_a_at) / Fold change /veh VCAN (11748164_a_at) / RFU JSRP1 (11732532_at) / Fold change /veh JSRP1 (11732532_at) / RFU KRTAP10-11 (11738290_x_at) / Fold change /veh KRTAP10-11 (11738290_x_at) / RFU MYO3A (11730013_a_at) / Fold change /veh MYO3A (11730013_a_at) / RFU EBF3 (11725865_a_at) / Fold change /veh EBF3 (11725865_a_at) / RFU CAMK2N1 (11719241_x_at) / Fold change /veh CAMK2N1 (11719241_x_at) / RFU C5orf56 (11738088_a_at) / Fold change /veh C5orf56 (11738088_a_at) / RFU OLFML3 (11715873_a_at) / Fold change /veh OLFML3 (11715873_a_at) / RFU LOC100653217 /// NTM (11731650_a_at) / Fold change /veh LOC100653217 /// NTM (11731650_a_at) / RFU MAPK11 (11762145_a_at) / Fold change /veh MAPK11 (11762145_a_at) / RFU FIZ1 (11724087_x_at) / Fold change /veh FIZ1 (11724087_x_at) / RFU OASL (11726364_x_at) / Fold change /veh OASL (11726364_x_at) / RFU SOX15 (11748057_x_at) / Fold change /veh SOX15 (11748057_x_at) / RFU CD79A (11719716_a_at) / Fold change /veh CD79A (11719716_a_at) / RFU HIST1H1D (11736915_at) / Fold change /veh HIST1H1D (11736915_at) / RFU CASKIN2 (11723855_a_at) / Fold change /veh CASKIN2 (11723855_a_at) / RFU LOC730098 (11760151_x_at) / Fold change /veh LOC730098 (11760151_x_at) / RFU OR4N2 (11742367_at) / Fold change /veh OR4N2 (11742367_at) / RFU PRRT2 (11749266_a_at) / Fold change /veh PRRT2 (11749266_a_at) / RFU SNX32 (11753110_a_at) / Fold change /veh SNX32 (11753110_a_at) / RFU CDHR5 (11726645_a_at) / Fold change /veh CDHR5 (11726645_a_at) / RFU RCAN1 (11760418_a_at) / Fold change /veh RCAN1 (11760418_a_at) / RFU FAM167A (11723789_a_at) / Fold change /veh FAM167A (11723789_a_at) / RFU FAM26E (11764081_at) / Fold change /veh FAM26E (11764081_at) / RFU ISYNA1 (11749810_s_at) / Fold change /veh ISYNA1 (11749810_s_at) / RFU ACY1 (11761880_at) / Fold change /veh ACY1 (11761880_at) / RFU 11764098_at / Fold change /veh 11764098_at / RFU SAMD14 (11745864_x_at) / Fold change /veh SAMD14 (11745864_x_at) / RFU NPB (11741838_a_at) / Fold change /veh NPB (11741838_a_at) / RFU TMPRSS6 (11731388_a_at) / Fold change /veh TMPRSS6 (11731388_a_at) / RFU KRTAP10-2 (11738614_at) / Fold change /veh KRTAP10-2 (11738614_at) / RFU ARHGAP8 /// PRR5-ARHGAP8 (11727945_x_at) / Fold change /veh ARHGAP8 /// PRR5-ARHGAP8 (11727945_x_at) / RFU KRTAP5-7 /// NADSYN1 (11734609_at) / Fold change /veh KRTAP5-7 /// NADSYN1 (11734609_at) / RFU RASL12 (11751679_a_at) / Fold change /veh RASL12 (11751679_a_at) / RFU CDKN2B (11736163_a_at) / Fold change /veh CDKN2B (11736163_a_at) / RFU PRF1 (11729649_at) / Fold change /veh PRF1 (11729649_at) / RFU, ZNF638 /// ZNF638-IT1 / Fold change vs veh, ZNF638 /// ZNF638-IT1 / RFU, PANK3 / Fold change vs veh, PANK3 / RFU, SH3YL1 / Fold change vs veh, SH3YL1 / RFU, ZEB2 / Fold change vs veh, ZEB2 / RFU, NRIP1 / Fold change vs veh, NRIP1 / RFU, PTTG1IP / Fold change vs veh, PTTG1IP / RFU, CAPN2 / Fold change vs veh, CAPN2 / RFU, MED14 / Fold change vs veh, MED14 / RFU, SNORA58 / Fold change vs veh, SNORA58 / RFU, C1orf63 / Fold change vs veh, C1orf63 / RFU, LRRFIP1 / Fold change vs veh, LRRFIP1 / RFU, NDUFAF7 / Fold change vs veh, NDUFAF7 / RFU, SLC12A2 / Fold change vs veh, SLC12A2 / RFU, IBTK / Fold change vs veh, IBTK / RFU, ESF1 / Fold change vs veh, ESF1 / Fold change vs veh, TMEM50B / RFU, TAOK1 / Fold change vs veh, TAOK1 / RFU, ACBD3 / Fold change vs veh, ACBD3 / RFU, TMA16 / Fold change vs veh, TMA16 / RFU, RWDD3 / Fold change vs veh, RWDD3 / RFU, BCAT1 / Fold change vs veh, BCAT1 / RFU, EDEM3 / Fold change vs veh, EDEM3 / RFU, TMEM33 / Fold change vs veh, TMEM33 / RFU, WDR75 / Fold change vs veh, WDR75 / RFU, AHCTF1 / Fold change vs veh, AHCTF1 / RFU, TFRC / Fold change vs veh, TFRC / RFU, ZDHHC17 / Fold change vs veh, ZDHHC17 / RFU, NOM1 / Fold change vs veh, NOM1 / RFU, ARL8B / Fold change vs veh, ARL8B / RFU, ZBTB11 / Fold change vs veh, ZBTB11 / RFU, TAMM41 / Fold change vs veh, TAMM41 / RFU, KIAA1704 /// LOC100996395 / Fold change vs veh, KIAA1704 /// LOC100996395 / RFU, ING1 / Fold change vs veh, ING1 / RFU, TRMT61B / Fold change vs veh, TRMT61B / RFU, FUBP3 / Fold change vs veh, FUBP3 / RFU, TP53 / Fold change vs veh, TP53 / RFU, TNKS2 / Fold change vs veh, TNKS2 / RFU, ZFP14 / Fold change vs veh, ZFP14 / RFU, ACTR2 / Fold change vs veh, ACTR2 / RFU, PPP3R1 / Fold change vs veh, PPP3R1 / RFU, PIK3R1 / Fold change vs veh, PIK3R1 / RFU, HNRNPA1 / Fold change vs veh, HNRNPA1 / RFU, RNF170 / Fold change vs veh, RNF170 / RFU, ZNF28 / Fold change vs veh, ZNF28 / RFU, RNGTT / Fold change vs veh, RNGTT / RFU, OGT / Fold change vs veh, OGT / RFU, BRD1 / Fold change vs veh, BRD1 / RFU, MARS / Fold change vs veh, MARS / RFU, ZNF655 / Fold change vs veh, ZNF655 / RFU, FAHD1 / Fold change vs veh, FAHD1 / RFU, BDP1 / Fold change vs veh, BDP1 / RFU, LRRCC1 / Fold change vs veh, LRRCC1 / RFU, ARID1A / Fold change vs veh, ARID1A / RFU, ZNF146 / Fold change vs veh, ZNF146 / RFU, ZNF330 / Fold change vs veh, ZNF330 / RFU, GPN3 / Fold change vs veh, GPN3 / RFU, C9orf123 / Fold change vs veh, C9orf123 / RFU, N4BP2L2 / Fold change vs veh, N4BP2L2 / RFU, ARFIP1 / Fold change vs veh, ARFIP1 / RFU, FAM179B / Fold change vs veh, FAM179B / RFU, BCL10 / Fold change vs veh, BCL10 / RFU, UHRF1BP1L / Fold change vs veh, UHRF1BP1L / RFU, BET1 / Fold change vs veh, BET1 / RFU, CNOT2 / Fold change vs veh, CNOT2 / RFU, ZNF268 / Fold change vs veh, ZNF268 / Fold change vs veh, ZNF507 / RFU, DGCR2 / Fold change vs veh, DGCR2 / RFU, WDSUB1 / Fold change vs veh, WDSUB1 / Fold change vs veh, HSP90B1 /// MIR3652 / RFU, ADSS / Fold change vs veh, ADSS / RFU, GK / Fold change vs veh, GK / RFU, ZNF148 / Fold change vs veh, ZNF148 / RFU, TAF9 / Fold change vs veh, TAF9 / RFU, SLC1A5 / Fold change vs veh, SLC1A5 / RFU, SLMO2 / Fold change vs veh, SLMO2 / RFU, ABCC4 / Fold change vs veh, ABCC4 / RFU, LOC101060439 /// RAP1B / Fold change vs veh, LOC101060439 /// RAP1B / RFU, RFX7 / Fold change vs veh, RFX7 / RFU, GTPBP10 / Fold change vs veh, GTPBP10 / RFU, CNEP1R1 / Fold change vs veh, CNEP1R1 / RFU, BIVM-ERCC5 /// ERCC5 / Fold change vs veh, BIVM-ERCC5 /// ERCC5 / RFU, ILF3 / Fold change vs veh, ILF3 / RFU 11762660_at / Fold change /veh 11762660_at / RFU VCAN (11757783_s_at) / Fold change /veh VCAN (11757783_s_at) / RFU DDX43 (11728927_at) / Fold change /veh DDX43 (11728927_at) / RFU KRT8 (11758188_x_at) / Fold change /veh KRT8 (11758188_x_at) / RFU NKD1 (11759106_at) / Fold change /veh NKD1 (11759106_at) / RFU SRD5A1 (11742802_a_at) / Fold change /veh SRD5A1 (11742802_a_at) / RFU TPSAB1 /// TPSB2 (11721975_s_at) / Fold change /veh TPSAB1 /// TPSB2 (11721975_s_at) / RFU GSTM3 (11746129_a_at) / Fold change /veh GSTM3 (11746129_a_at) / RFU IL23R (11737362_x_at) / Fold change /veh IL23R (11737362_x_at) / RFU TMEM51 (11727254_a_at) / Fold change /veh TMEM51 (11727254_a_at) / RFU PIWIL2 (11732686_x_at) / Fold change /veh PIWIL2 (11732686_x_at) / RFU ORM1 (11744905_x_at) / Fold change /veh ORM1 (11744905_x_at) / RFU CCDC152 (11743942_at) / Fold change /veh CCDC152 (11743942_at) / RFU ECM1 (11717891_a_at) / Fold change /veh ECM1 (11717891_a_at) / RFU IL23R (11748794_a_at) / Fold change /veh IL23R (11748794_a_at) / RFU TNFAIP8L3 (11732012_x_at) / Fold change /veh TNFAIP8L3 (11732012_x_at) / RFU MBOAT4 (11741988_at) / Fold change /veh MBOAT4 (11741988_at) / RFU 11764193_at / Fold change /veh 11764193_at / RFU TMEM53 (11763286_at) / Fold change /veh TMEM53 (11763286_at) / RFU MAGEB2 (11727129_at) / Fold change /veh MAGEB2 (11727129_at) / RFU TMEM200A (11744735_a_at) / Fold change /veh TMEM200A (11744735_a_at) / RFU CCDC152 (11751479_a_at) / Fold change /veh CCDC152 (11751479_a_at) / RFU FAM211A (11726209_a_at) / Fold change /veh FAM211A (11726209_a_at) / RFU RGS16 (11746705_a_at) / Fold change /veh RGS16 (11746705_a_at) / RFU VCAN (11755009_s_at) / Fold change /veh VCAN (11755009_s_at) / RFU RHOB (11743442_s_at) / Fold change /veh RHOB (11743442_s_at) / RFU RGS16 (11720943_a_at) / Fold change /veh RGS16 (11720943_a_at) / RFU RGS16 (11720944_at) / Fold change /veh RGS16 (11720944_at) / RFU, VPS4B / Fold change vs veh, VPS4B / RFU, CREB1 / Fold change vs veh, CREB1 / RFU, DNAJC13 / Fold change vs veh, DNAJC13 / RFU, GNAQ / Fold change vs veh, GNAQ / RFU, CDK5R1 / Fold change vs veh, CDK5R1 / RFU, ZRANB3 / Fold change vs veh, ZRANB3 / RFU, CUL4A / Fold change vs veh, CUL4A / RFU, CCNY / Fold change vs veh, CCNY / RFU, UFL1 / Fold change vs veh, UFL1 / RFU, COG3 / Fold change vs veh, COG3 / RFU, DIAPH2 / Fold change vs veh, DIAPH2 / RFU, SKA2 / Fold change vs veh, SKA2 / RFU, AFF3 / Fold change vs veh, AFF3 / RFU, LMF1 / Fold change vs veh, LMF1 / RFU, IPO11 / Fold change vs veh, IPO11 / RFU, DFFB / Fold change vs veh, DFFB / RFU, FOXP1 / Fold change vs veh, FOXP1 / RFU, CARD8 / Fold change vs veh, CARD8 / RFU, STRN3 / Fold change vs veh, STRN3 / RFU, ADK / Fold change vs veh, ADK / RFU, RASSF2 / Fold change vs veh, RASSF2 / RFU, WIPF1 / Fold change vs veh, WIPF1 / RFU, LARP1B / Fold change vs veh, LARP1B / RFU, RASA1 / Fold change vs veh, RASA1 / RFU, RB1 / Fold change vs veh, RB1 / RFU, PPFIA1 / Fold change vs veh, PPFIA1 / RFU, MAT2A / Fold change vs veh, MAT2A / RFU, CCT5 / Fold change vs veh, CCT5 / RFU, WDR92 / Fold change vs veh, WDR92 / RFU, CUX1 / Fold change vs veh, CUX1 / RFU, TTC7A / Fold change vs veh, TTC7A / RFU, TMEM135 / Fold change vs veh, TMEM135 / RFU, DEPTOR / Fold change vs veh, DEPTOR / RFU, CPM / Fold change vs veh, CPM / RFU, DNAJB6 / Fold change vs veh, DNAJB6 / RFU, CACNA2D3 / Fold change vs veh, CACNA2D3 / RFU, DTX4 / Fold change vs veh, DTX4 / RFU, TFCP2 / Fold change vs veh, TFCP2 / RFU, GMCL1 /// GMCL1P1 / Fold change vs veh, GMCL1 /// GMCL1P1 / RFU, AEBP2 / Fold change vs veh, AEBP2 / RFU, SNHG1 /// SNORD22 /// SNORD25 /// SNORD26 /// SNORD27 /// SNORD28 /// SNORD29 /// SNORD31 / Fold change vs veh, SNHG1 /// SNORD22 /// SNORD25 /// SNORD26 /// SNORD27 /// SNORD28 /// SNORD29 /// SNORD31 / Fold change (Aza/veh), C12orf56 (ProbeSet 11735607_a_at) / Fold change (ACY-1035/veh), C12orf56 (ProbeSet 11735607_a_at) / Fold change (Aza/veh), FGFR1OP (ProbeSet 11751329_s_at) / Fold change (ACY-1035/veh), FGFR1OP (ProbeSet 11751329_s_at) / Fold change (Aza/veh), VPS36 (ProbeSet 11739960_a_at) / Fold change (ACY-1035/veh), VPS36 (ProbeSet 11739960_a_at) / RFU SYPL1 (11715823_x_at) / Fold change /veh SYPL1 (11715823_x_at) / RFU IGFBP7 (11715501_s_at) / Fold change /veh IGFBP7 (11715501_s_at) / RFU REEP3 (11722064_at) / Fold change /veh REEP3 (11722064_at) / RFU IGLL1 (11728026_x_at) / Fold change /veh IGLL1 (11728026_x_at): dose or concentration left out as unconfirmed
Conditions: ProbeSet 11717914_a_at; LIST B

**Q.** For `Nc1ccc(-c2cccs2)cc1NC(=O)c1ccc2c(c1)cc(C1CC1)n2CCN1CCOCC1` [ACY-1035], which “RFU, BIVM-ERCC5 /// ERCC5” value is on record?
**A.** The value was 177.23 RFU.
